Reference: patent US11957687B2 (REGENERON PHARMACEUTICALS, INC., priority 2019, dated 2024)

Molecular target: HSD17B13 (Homo sapiens (Human), UniProt Q7Z5P4)
Assay: HSD17B13 enzymatic inhibition assay (150 nM or 50 nM HSD17B13)
Assay type: biochemical
Conditions: 50 nM HSD17B13; read-out: Inhibition of 50 nM of HSD17B13 IC50

Sequence of HSD17B13 (Q7Z5P4 other isoform, or with tags, fused parts or gaps): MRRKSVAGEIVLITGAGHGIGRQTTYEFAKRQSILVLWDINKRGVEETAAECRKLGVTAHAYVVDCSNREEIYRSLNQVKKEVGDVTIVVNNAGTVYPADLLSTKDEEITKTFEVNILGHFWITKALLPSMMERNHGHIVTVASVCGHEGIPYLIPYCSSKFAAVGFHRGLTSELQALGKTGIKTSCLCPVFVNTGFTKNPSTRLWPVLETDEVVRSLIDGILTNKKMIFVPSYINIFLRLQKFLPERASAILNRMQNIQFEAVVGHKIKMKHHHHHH

Compared with Cc1ccc2c(c1N)CCC2NC(=O)c1ccc(C(F)(F)F)[nH]c1=O (stereo not drawn) [Compound 266, N-(4-amino-5-methyl-2,3-dihydro-1H-inden-1-yl)-2-oxo-6-(trifluoromethyl)-1,2-dihydropyridine-3-carboxamide], NCc1cccc2c1CCCC2NC(=O)c1ccc(C(F)(F)F)[nH]c1=O (stereo not drawn) [Compound 313, N-(5-(aminomethyl)-1,2,3,4-tetrahydronaphthalen-1-yl)-2-oxo-6-(trifluoromethyl)-1,2-dihydropyridine-3-carboxamide] is higher in IC50: 640 nM for the first, greater than 10000 nM for the second. The first is the more potent here.

Going from C=CCc1cc(NC(=O)c2ccc(C(F)(F)F)[nH]c2=O)cc(CC=C)n1 [Compound 267, N-(2,6-diallylpyridin-4-yl)-2-oxo-6-(trifluoromethyl)-1,2-dihydropyridine-3-carboxamide] to C=CCc1cc(NC(=O)c2ccc(C(F)(F)F)[nH]c2=O)cc(/C=C/C)n1 [Compound 269, (E)-N-(2-allyl-6-(prop-1-en-1-yl)pyridin-4-yl)-2-oxo-6-(trifluoromethyl)-1,2-dihydropyridine-3-carboxamide], the IC50 falls from 9440 nM to 5010 nM (1.9-fold).

Compared with CCCc1cc(NC(=O)c2ccc(C(F)(F)F)[nH]c2=O)cc(CCC)n1 [Compound 268, N-(2,6-dipropylpyridin-4-yl)-2-oxo-6-(trifluoromethyl)-1,2-dihydropyridine-3-carboxamide], C=CCc1cc(CC=C)cc(NC(=O)c2ccc(C(F)(F)F)[nH]c2=O)c1 [Compound 270, N-(3,5-diallylphenyl)-2-oxo-6-(trifluoromethyl)-1,2-dihydropyridine-3-carboxamide] is lower in IC50: greater than 10000 nM for the first, 1390 nM for the second.

Going from Cc1ccc2c(c1)Sc1ccccc1C2NC(=O)c1ccc(C(F)F)[nH]c1=O (stereo not drawn) [Compound 275, 6-(difluoromethyl)-N-(3-methyl-9H-thioxanthen-9-yl)-2-oxo-1,2-dihydropyridine-3-carboxamide] to Cc1ccc2c(c1)C(NC(=O)c1ccc(C(F)F)[nH]c1=O)c1ccccc1S2 (stereo not drawn) [Compound 281, 6-(difluoromethyl)-N-(2-methyl-9H-thioxanthen-9-yl)-2-oxo-1,2-dihydropyridine-3-carboxamide], the IC50 rises from 100 nM to 1880 nM (19-fold). The first is the more potent here.

Going from Cc1ccc2c(c1)C(NC(=O)c1ccc(C(F)F)[nH]c1=O)c1ccccc1O2 (stereo not drawn) [Compound 276, 6-(difluoromethyl)-N-(2-methyl-9H-xanthen-9-yl)-2-oxo-1,2-dihydropyridine-3-carboxamide] to Cc1ccc2c(c1)Oc1ccccc1C2NC(=O)c1ccc(C(F)F)[nH]c1=O (stereo not drawn) [Compound 279, 6-(difluoromethyl)-N-(3-methyl-9H-xanthen-9-yl)-2-oxo-1,2-dihydropyridine-3-carboxamide], the IC50 falls from 2620 nM to 180 nM (15-fold). The second is the more potent here.

O=C(NC1c2ccccc2Sc2ccccc21)c1ccc(C(F)F)[nH]c1=O [Compound 277, 6-(difluoromethyl)-2-oxo-N-(9H-thioxanthen-9-yl)-1,2-dihydropyridine-3-carboxamide] and O=C(NC1c2ccccc2Oc2ccccc21)c1ccc(C(F)F)[nH]c1=O [Compound 278, 6-(difluoromethyl)-2-oxo-N-(9H-xanthen-9-yl)-1,2-dihydropyridine-3-carboxamide] are within 1.5-fold of each other in IC50: 2710 nM for the first, 2000 nM for the second.

Going from Cc1ccc2c(c1)Oc1cc(C)ccc1C2NC(=O)c1ccc(C(F)F)[nH]c1=O [Compound 280, 6-(difluoromethyl)-N-(3,6-dimethyl-9H-xanthen-9-yl)-2-oxo-1,2-dihydropyridine-3-carboxamide] to Cc1ccc2c(c1)Oc1cccnc1C2NC(=O)c1ccc(C(F)(F)F)[nH]c1=O (stereo not drawn) [Compound 326, N-(7-methyl-10H-chromeno[3,2-b]pyridin-10-yl)-2-oxo-6-(trifluoromethyl)-1,2-dihydropyridine-3-carboxamide], the IC50 falls from 110 nM to 60 nM (1.8-fold).

Compared with COc1ccc(-c2nc(SCc3cccc(C(F)(F)F)c3)[nH]c(=O)c2C#N)cc1 [Compound 283, 4-(4-methoxyphenyl)-6-oxo-2-((3-(trifluoromethyl)benzyl)thio)-1,6-dihydropyrimidine-5-carbonitrile], COc1ccc2c(c1)Oc1cccnc1C2NC(=O)c1ccc(C(F)(F)F)[nH]c1=O (stereo not drawn) [Compound 322, N-(7-methoxy-10H-chromeno[3,2-b]pyridin-10-yl)-2-oxo-6-(trifluoromethyl)-1,2-dihydropyridine-3-carboxamide] is 16-fold lower in IC50: 4760 nM for the first, 300 nM for the second. The second is the more potent here.

First: CCCC1Cc2cc(C)ccc2C1NC(=O)c1ccc(C(F)(F)F)[nH]c1=O (stereo not drawn) [Compound 287, N-(5-methyl-2-propyl-2,3-dihydro-1H-inden-1-yl)-2-oxo-6-(trifluoromethyl)-1,2-dihydropyridine-3-carboxamide]
Second: Cc1ccc2c(c1)CC(C)C2NC(=O)c1ccc(C(F)(F)F)[nH]c1=O (stereo not drawn) [Compound 296, N-(2,5-dimethyl-2,3-dihydro-1H-inden-1-yl)-2-oxo-6-(trifluoromethyl)-1,2-dihydropyridine-3-carboxamide]
The IC50 of the first is 2.8-fold lower: 60 nM for the first, 170 nM for the second.

First: Cc1ccc2c(c1)C(NC(=O)c1ccc(C(F)(F)F)[nH]c1=O)C(C)C2 (stereo not drawn) [Compound 288, N-(2,6-dimethyl-2,3-dihydro-1H-inden-1-yl)-2-oxo-6-(trifluoromethyl)-1,2-dihydropyridine-3-carboxamide]
Second: CCC1Cc2ccc(C)cc2C1NC(=O)c1ccc(C(F)(F)F)[nH]c1=O (stereo not drawn) [Compound 290, N-(2-ethyl-6-methyl-2,3-dihydro-1H-inden-1-yl)-2-oxo-6-(trifluoromethyl)-1,2-dihydropyridine-3-carboxamide]
The IC50 of the first is 2.4-fold higher: 190 nM for the first, 80 nM for the second. The second is the more potent here.

Going from COc1ccc2c(c1)CCC(C)C2NC(=O)c1ccc(C(F)(F)F)[nH]c1=O (stereo not drawn) [Compound 292, N-(6-methoxy-2-methyl-1,2,3,4-tetrahydronaphthalen-l-yl)-2-oxo-6-(trifluoromethyl)-1,2-dihydropyridine-3-carboxamide] to Cc1ccc2c(c1)[C@H](N)CC[C@H]2NC(=O)c1ccc(C(F)(F)F)[nH]c1=O [Compound 304, N-((1R,4R)-4-amino-6-methyl-1,2,3,4-tetrahydronaphthalen-1-yl)-2-oxo-6-(trifluoromethyl)-1,2-dihydropyridine-3-carboxamide], the IC50 rises from 220 nM to greater than 10000 nM.

Compared with CCC[C@@H]1C[C@H](NC(=O)c2ccc(C(F)(F)F)[nH]c2=O)C[C@H](CCC)O1 [Compound 303, N-((2R,4R,6S)-2,6-dipropyltetrahydro-2H-pyran-4-yl)-2-oxo-6-(trifluoromethyl)-1,2-dihydropyridine-3-carboxamide], Cc1ccc2c(c1)[C@@H](N)CC[C@H]2NC(=O)c1ccc(C(F)(F)F)[nH]c1=O [Compound 305, N-((1R,4S)-4-amino-6-methyl-1,2,3,4-tetrahydronaphthalen-1-yl)-2-oxo-6-(trifluoromethyl)-1,2-dihydropyridine-3-carboxamide] is 2.6-fold higher in IC50: 3060 nM for the first, 7850 nM for the second.

Going from Cc1ccc2sc(C)c(NC(=O)c3ccc(C(F)(F)F)[nH]c3=O)c2c1 [Compound 310, N-(2,5-dimethylbenzo[b]thiophen-3-yl)-2-oxo-6-(trifluoromethyl)-1,2-dihydropyridine-3-carboxamide] to Cc1cc2c(cn1)C(NC(=O)c1ccc(C(F)(F)F)[nH]c1=O)c1ccccc1O2 (stereo not drawn) [Compound 325, N-(3-methyl-10H-chromeno[3,2-c]pyridin-10-yl)-2-oxo-6-(trifluoromethyl)-1,2-dihydropyridine-3-carboxamide], the IC50 falls from 680 nM to 180 nM (3.8-fold). The second is the more potent here.

CC(C)(C)OC(=O)NCCN1Cc2ccccc2C(NC(=O)c2ccc(C(F)(F)F)[nH]c2=O)C1 (stereo not drawn) [Compound 314, tert-butyl (2-(4-(2-oxo-6-(trifluoromethyl)-1,2-dihydropyridine-3-carboxamido)-3,4-dihydroisoquinolin-2(1H)-yl)ethyl)carbamate] and CC(C)(C)OC(=O)N1Cc2ccccc2C(NC(=O)c2ccc(C(F)(F)F)[nH]c2=O)C1 (stereo not drawn) [Compound 317, tert-butyl 4-(2-oxo-6-(trifluoromethyl)-1,2-dihydropyridine-3-carboxamido)-3,4-dihydroisoquinoline-2(1H)-carboxylate] are within 1.5-fold of each other in IC50: 5520 nM for the first, 4030 nM for the second.

First: O=C(NC1CN(CCOCc2ccccc2)Cc2ccccc21)c1ccc(C(F)(F)F)[nH]c1=O (stereo not drawn) [Compound 315, N-(2-(2-(benzyloxy)ethyl)-1,2,3,4-tetrahydroisoquinolin-4-yl)-2-oxo-6-(trifluoromethyl)-1,2-dihydropyridine-3-carboxamide]
Second: Cc1ccc2c(c1)N(CCOCc1ccccc1)CCC2NC(=O)c1ccc(C(F)(F)F)[nH]c1=O (stereo not drawn) [Compound 316, N-(1-(2-(benzyloxy)ethyl)-7-methyl-1,2,3,4-tetrahydroquinolin-4-yl)-2-oxo-6-(trifluoromethyl)-1,2-dihydropyridine-3-carboxamide]
The IC50 of the first is 6.2-fold lower: 960 nM for the first, 5960 nM for the second.

First: O=C(NC1c2ccncc2Oc2ccc(O)cc21)c1ccc(C(F)(F)F)[nH]c1=O (stereo not drawn) [Compound 318, N-(7-hydroxy-5H-chromeno[2,3-c]pyridin-5-yl)-2-oxo-6-(trifluoromethyl)-1,2-dihydropyridine-3-carboxamide]
Second: O=C(NC1c2ccncc2Oc2cc(O)ccc21)c1ccc(C(F)(F)F)[nH]c1=O (stereo not drawn) [Compound 320, N-(8-hydroxy-5H-chromeno[2,3-c]pyridin-5-yl)-2-oxo-6-(trifluoromethyl)-1,2-dihydropyridine-3-carboxamide]
The IC50 of the first is 12-fold higher: 7250 nM for the first, 600 nM for the second. The second is the more potent here.

First: COc1ccc2c(c1)C(NC(=O)c1ccc(C(F)(F)F)[nH]c1=O)c1ccncc1O2 (stereo not drawn) [Compound 319, N-(7-methoxy-5H-chromeno[2,3-c]pyridin-5-yl)-2-oxo-6-(trifluoromethyl)-1,2-dihydropyridine-3-carboxamide]
Second: O=C(NC1c2ccccc2Oc2ccncc21)c1ccc(C(F)(F)F)[nH]c1=O (stereo not drawn) [Compound 332, N-(10H-chromeno[3,2-c]pyridin-10-yl)-2-oxo-6-(trifluoromethyl)-1,2-dihydropyridine-3-carboxamide]
The IC50 of the first is 1.6-fold lower: 830 nM for the first, 1290 nM for the second. The first is the more potent here.

Compared with Cc1cccc2c1C(NC(=O)c1ccc(C(F)(F)F)[nH]c1=O)c1cnccc1O2 (stereo not drawn) [Compound 329, N-(9-methyl-10H-chromeno[3,2-c]pyridin-10-yl)-2-oxo-6-(trifluoromethyl)-1,2-dihydropyridine-3-carboxamide], O=C(NC1c2ccccc2Oc2cccnc21)c1ccc(C(F)(F)F)[nH]c1=O (stereo not drawn) [Compound 331, N-(10H-chromeno[3,2-b]pyridin-10-yl)-2-oxo-6-(trifluoromethyl)-1,2-dihydropyridine-3-carboxamide] is 2.8-fold lower in IC50: 1680 nM for the first, 600 nM for the second. The second is the more potent here.
